From US12653815B2, “Luminally-acting N-(piperidin-4-yl)benzamide derivatives” (Takeda Pharmaceutical Company Limited, priority 2020, dated 2026) come the findings set out here.

In this assay the target is T1, human 5-HT4(b) receptor (Homo sapiens, UniProt Q13639).
T1 construct: overexpressing the full-length human 5-HT4(b) receptor with an N-terminal FLAG tag; FLAG (N); host or cells: CHO-K1
T1 sequence (Q13639 whole entry): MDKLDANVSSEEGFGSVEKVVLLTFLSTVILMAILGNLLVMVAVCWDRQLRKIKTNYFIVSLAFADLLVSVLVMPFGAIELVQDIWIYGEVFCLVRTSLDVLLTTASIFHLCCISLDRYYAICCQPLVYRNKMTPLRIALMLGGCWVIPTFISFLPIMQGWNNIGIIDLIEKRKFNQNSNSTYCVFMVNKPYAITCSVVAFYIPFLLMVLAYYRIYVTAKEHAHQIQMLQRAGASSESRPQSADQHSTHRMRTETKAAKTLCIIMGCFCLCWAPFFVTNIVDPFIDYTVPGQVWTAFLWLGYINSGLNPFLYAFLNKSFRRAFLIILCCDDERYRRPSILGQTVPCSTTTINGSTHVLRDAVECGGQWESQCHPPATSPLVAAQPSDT
In words: 5-HT4(b) agonist assay (cAMP accumulation). It counts as cell-based. As to conditions: CHO-K1 cells overexpressing full-length human 5-HT4(b) receptor; cAMP accumulation after 30 minutes at room temperature; 1 μM 5-HT as 100% activity. As for the experimental part: One may determine the activity of the compounds of Formula 1 using a variety of methods, including in vitro and in vivo methods. The ability of the example compounds to activate the 5-HT4(b) receptor may be determined using the following assay.
Chinese hamster ovary (CHO-K1) cells overexpressing the full-length human 5-HT4(b) receptor with an N-terminal FLAG tag (Multispan Inc, Hayward, CA) are cultured per the manufacturer's protocol in 1:1 DMEM/F12 (Thermo Fisher, Waltham, MA) with 10% fetal bovine serum (GE Healthcare, Pittsburgh, PA) and 10 μg/mL puromycin (Thermo Fisher, Waltham, MA), and stored in frozen aliquots to be used as assay ready cells. On the day of the assay, cells are removed from frozen storage, washed two times in 1× Kreb's Ringer Buffer (Zenbio, Research Triangle Park, NC), and re-suspended to a concentration of 4×10^6 cells/mL in 1× Kreb's Ringer Buffer. Test compound (50 nL) in 100% DMSO is acoustically dispensed in low volume, white, 384-well polypropylene plates (Corning, Tewksbury, MA), followed by the addition of 4×10^4 cells per well in a total volume of 10 μL. Cells are incubated with test compound for 30 minutes at room temperature in the dark, and cAMP accumulation is measured using the Cisbio HiRange cAMP assay kit (Bedford, MA) per the manufacturer's protocol. Anti-cAMP antibody and d2-cAMP tracer reagents diluted in lysis/detection buffer are incubated in the dark for 1 hour, and results are measured on a Pherastar plate reader (BMG Labtech, Ortenberg, Germany). Data are normalized using 1 μM 5-HT (Sigma Aldrich, St. Louis, MO) as 100% activity, and DMSO alone as 0% activity.
The ability of the example compounds to activate the 5-HT4(b) receptor was evaluated using the assay described in the Biological Activity section. Table 1, below, lists EC50 from the 5-HT4(b) agonist assay for each of the example compounds, where smaller EC50 values represent higher potency.
`COc1cc(N)c(Cl)cc1C(=O)N[C@@H]1CCN(CCCCCC(=O)N[C@@H]2CCCN(CCCCCCCC(=O)NC[C@H](O)[C@@H](O)[C@H](O)[C@H](O)CO)C2)C[C@@H]1OC` [Example 12, 4-amino-5-chloro-2-methoxy-N-((3S,4R)-3-methoxy-1-(6-oxo-6-(((R)-1-(8-oxo-8-(((2S,3R,4R,5R)-2,3,4,5,6-pentahydroxyhexyl)amino)octyl)piperidin-3-yl)amino)hexyl)piperidin-4-yl)benzamide] showed an EC50 of 0.0146 µM.

For the compound `CO[C@H]1CN(CC2CCN(C(=O)CCCC(=O)NC[C@H](O)[C@@H](O)[C@H](O)[C@H](O)CO)CC2)CC[C@H]1NC(=O)c1cc(Cl)c(N)c2c1OCC2` [Example 43, 4-amino-5-chloro-N-((3S,4R)-3-methoxy-1-((1-(5-oxo-5-(((2S,3R,4R,5R)-2,3,4,5,6-pentahydroxyhexyl)amino)pentanoyl)piperidin-4-yl)methyl)piperidin-4-yl)-2,3-dihydrobenzofuran-7-carboxamide], the response was half-maximal at 0.0017 µM (EC50). This EC50 lies about 8.6-fold lower than the previous one.

The compound `COc1cc(N)c(Cl)cc1C(=O)N[C@@H]1CCN(CCCCCC(=O)NC2CCN(CCCCCC(=O)NC[C@H](O)[C@@H](O)[C@H](O)[C@H](O)CO)CC2)C[C@@H]1OC` [Example 9, 4-amino-5-chloro-2-methoxy-N-((3S,4R)-3-methoxy-1-(6-oxo-6-((1-(6-oxo-6-(((2S,3R,4R,5R)-2,3,4,5,6-pentahydroxyhexyl)amino)hexyl)piperidinyl)amino)hexyl)piperidin-4-yl)benzamide] returned a half-maximal effective concentration (EC50) of 0.0081 µM. Compared with the last compound, the EC50 is about 4.8-fold higher.

In turn, `CO[C@H]1CN(CCCCCC(=O)NCCCCCC(=O)NC[C@H](O)[C@@H](O)[C@H](O)[C@H](O)CO)CC[C@H]1NC(=O)c1cc(Cl)c(N)c2c1OCC2` [Example 45, 4-amino-5-chloro-N-((3S,4R)-3-methoxy-1-(6-oxo-6-((6-oxo-6-(((2S,3R,4R,5R)-2,3,4,5,6-pentahydroxyhexyl)amino)hexyl)amino)hexyl)piperidin-4-yl)-2,3-dihydrobenzofuran-7-carboxamide] had a 50% effective concentration (EC50) of 0.0121 µM.

With `COc1cc(N)c(Cl)cc1C(=O)N[C@@H]1CCN(CCCCCC(=O)NCCCCCC(=O)NC[C@H](O)[C@@H](O)[C@H](O)[C@H](O)CO)C[C@@H]1OC` [Example 3, 4-amino-5-chloro-2-methoxy-N-((3S,4R)-3-methoxy-1-(6-oxo-6-((6-oxo-6-(((2S,3R,4R,5R)-2,3,4,5,6-pentahydroxyhexyl)amino)hexyl)amino)hexyl)piperidinyl)benzamide], it took 0.0223 µM to reach a half-maximal effect (EC50).

`Nc1c(Cl)cc(C(=O)NCC2CCN(CC3CCN(C(=O)CCCCCCCCC(=O)NC[C@H](O)[C@@H](O)[C@H](O)[C@H](O)CO)CC3)CC2)c2c1CCO2` [Example 39, 4-amino-5-chloro-N-((1-((1-(10-oxo-10-(((2S,3R,4R,5R)-2,3,4,5,6-pentahydroxyhexyl)amino)decanoyl)piperidin-4-yl)methyl)piperidin-4-yl)methyl)-2,3-dihydrobenzofuran-7-carboxamide] yielded an EC50 of 0.0012 µM.

In turn, `COc1cc(N)c(Cl)cc1C(=O)N[C@@H]1CCN(CCCCCC(=O)NCCCCCCCC(=O)N(CCCN(C)C)CCS(=O)(=O)O)C[C@@H]1OC` [Example 27, 2-(8-(6-((3S,4R)-4-(4-amino-5-chloro-2-methoxybenzamido)methoxypiperidin-1-yl)hexanamido)-N-(3-(dimethylamino)propyl)octanamido)ethane-1-sulfonic acid] gave a concentration for a half-maximal effect (EC50) of 0.0303 µM.

Consider `COc1cc(N)c(Cl)cc1C(=O)N[C@@H]1CCN(CCCCCC(=O)NCC(=O)NC[C@H](O)[C@@H](O)[C@H](O)[C@H](O)CO)C[C@@H]1OC` [Example 5, 4-amino-5-chloro-2-methoxy-N-((3S,4R)-3-methoxy-1-(6-oxo-6-((2-oxo-2-(((2S,3R,4R,5R)-2,3,4,5,6-pentahydroxyhexyl)amino)ethyl)amino)hexyl)piperidin-4-yl)benzamide], for which it took 0.0132 µM to reach a half-maximal effect (EC50).

The compound `COc1cc(N)c(Cl)cc1C(=O)N[C@@H]1CCN(CCCCCC(=O)NCCCCCCCC(=O)NC[C@H](O)[C@@H](O)[C@H](O)[C@H](O)CO)C[C@@H]1OC` [Example 2, 4-amino-5-chloro-2-methoxy-N-((3S,4R)-3-methoxy-1-(6-oxo-6-((8-oxo-8-(((2S,3R,4R,5R)-2,3,4,5,6-pentahydroxyhexyl)amino)octyl)amino)hexyl)piperidin-4-yl)benzamide] registered an EC50 of 0.0214 µM.

Turning to `COc1cc(N)c(Cl)cc1C(=O)N[C@@H]1CCN(CCCCCC(=O)NCCCCCCCC(=O)N(CCO)C[C@H](O)[C@@H](O)[C@H](O)[C@H](O)CO)C[C@@H]1OC` [Example 22, 4-amino-5-chloro-N-((3 S,4R)-1-(6-((8-((2-hydroxyethyl)((2S,3R,4R,5R)-2,3,4,5,6-pentahydroxyhexyl)amino)-8-oxooctyl)amino)-6-oxohexyl)-3-methoxypiperidin-4-yl)-2-methoxybenzamide], the EC50 was 0.0191 µM.

Turning to `COc1cc(N)c(Cl)cc1C(=O)N[C@@H]1CCN(CCC(C)CCC(=O)NCCCCCCCC(=O)NC[C@H](O)[C@@H](O)[C@H](O)[C@H](O)CO)C[C@@H]1OC` (stereo partly drawn) [Example 20, 4-amino-5-chloro-2-methoxy-N-((3S,4R)-3-methoxy-1-(3-methyl-6-oxo-6-((8-oxo-8-(((2S,3R,4R,5R)-2,3,4,5,6-pentahydroxyhexyl)amino)octyl)amino)hexyl)piperidin-4-yl)benzamide], it took 0.0576 µM to reach a half-maximal effect (EC50).

`Nc1c(Cl)cc(C(=O)NC2CCN(CCCCCC(=O)N[C@@H]3CCCN(CCCCCC(=O)NC[C@H](O)[C@@H](O)[C@H](O)[C@H](O)CO)C3)CC2)c2c1CCO2` [Example 29, 4-amino-5-chloro-N-(1-(6-oxo-6-(((R)-1-(6-oxo-6-(((2S,3R,4R,5R)-2,3,4,5,6-pentahydroxyhexyl)amino)hexyl)piperidin-3-yl)amino)hexyl)piperidin-4-yl)-2,3-dihydrobenzofuran-7-carboxamide] registered an EC50 of 0.0044 µM.

With `COc1cc(N)c(Cl)cc1C(=O)N[C@@H]1CCN(CCCC(C)CC(=O)NCCCCCCCC(=O)NC[C@H](O)[C@@H](O)[C@H](O)[C@H](O)CO)C[C@@H]1OC` (stereo partly drawn) [Example 21, 4-amino-5-chloro-2-methoxy-N-((3S,4R)-3-methoxy-1-(4-methyl-6-oxo-6-((8-oxo-8-(((2S,3R,4R,5R)-2,3,4,5,6-pentahydroxyhexyl)amino)octyl)amino)hexyl)piperidin-4-yl)benzamide], the EC50 turned out to be 0.0276 µM.

As to `COc1cc(N)c(Cl)cc1C(=O)N[C@@H]1CCN(CCCCCC(=O)NC[C@H](O)[C@@H](O)[C@H](O)[C@H](O)CO)C[C@@H]1OC` [Example 1, 4-amino-5-chloro-2-methoxy-N-((3S,4R)-3-methoxy-1-(6-oxo-6-(((2S,3R,4R,5R)-2,3,4,5,6-pentahydroxyhexyl)amino)hexyl)piperidin-4-yl)benzamide], the EC50 amounted to 0.0198 µM.

`Nc1c(Cl)cc(C(=O)NCC2CCN(CC3CCN(C(=O)CCCCCCCCCCC(=O)NC[C@H](O)[C@@H](O)[C@H](O)[C@H](O)CO)CC3)CC2)c2c1CCO2` [Example 38, 4-amino-5-chloro-N-((1-((1-(12-oxo-12-(((2S,3R,4R,5R)-2,3,4,5,6-pentahydroxyhexyl)amino)dodecanoyl)piperidin-4-yl)methyl)piperidin-4-yl)methyl)-2,3-dihydrobenzofuran-7-carboxamide] gave an EC50 of 0.0012 µM.
